{"source": "patent US10787425B2", "about": "“Thiazolidinedione derivative and use thereof” (INDUSTRY-ACADEMIC COOPERATION FOUNDATION CHOSUN UNIVERSITY, priority 2016, dated 2020)", "key": {"15-PGDH": {"target": "15-PGDH (Homo sapiens (Human), UniProt P15428)", "sequence (P15428 whole entry)": "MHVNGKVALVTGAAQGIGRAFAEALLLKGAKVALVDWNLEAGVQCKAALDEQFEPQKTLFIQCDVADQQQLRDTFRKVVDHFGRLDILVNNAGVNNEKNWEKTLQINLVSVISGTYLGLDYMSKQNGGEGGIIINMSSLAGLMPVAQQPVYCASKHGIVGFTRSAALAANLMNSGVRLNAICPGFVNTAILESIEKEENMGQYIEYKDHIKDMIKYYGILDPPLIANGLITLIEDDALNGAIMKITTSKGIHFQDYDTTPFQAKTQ", "assay": "15-PGDH inhibitory activity (NADH at 340 nm)", "assay_type": "biochemical", "details": "concentration inhibiting 50% of 15-PGDH activity; purified 15-PGDH, 21 μM PGE2, 0.25 mM NAD+", "method_in_brief": "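GST-purified human 15-PGDH (E. coli BL-21 LysS, 10 μg) with 21 μM PGE2 and 0.25 mM NAD+ in 50 mM Tris-HCl pH 7.5, 0.1 mM DTT. Compound tested at 0.0001–64 μM; NADH formation read by absorbance at 340 nm against a standard curve.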"}, "A549 cells": {"test_system": "A549 cells", "assay": "Measurement of PGE2 concentration in A549 cell medium (ELISA)", "assay_type": "cell-based, human", "details": "for Increment %: PGE2 concentration versus PBS control, 5 μM, 12 hours; for PGE2 concentration: inhibitor 5 μM, medium collected after 12 hours, ELISA", "method_in_brief": "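A549 cells in RPMI 1640 with 8% FBS, seeded at 5×10^5 cells/well and grown 24 h at 37° C, 5% CO2; at ~80% confluence treated with 15-PGDH inhibitor at 5 μM in PBS (PBS-only negative control). After 12 h, PGE2 in the medium was measured by ELISA against a standard curve.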"}, "HaCaT cells": {"test_system": "HaCaT cells", "assay": "Wound treatment (scratch) assay in HaCaT cells", "assay_type": "cell-based, human", "details": "48 hours", "protocol": "HaCaT cells subcultured for about one week in DMEM [containing+8% FBS, AA] medium were inoculated in a 6-well plate at 2×10^5 cells/mL ([…]). Then, the cells were cultured for about 24 hours until the cells reached 80% confluency. HaCaT cells are an adult human skin-derived and spontaneously […] aneuploid immortal keratinocyte cell line. After the culture, the cells were washed with 1×PBS buffer and the used medium was replaced with an FBS and antibiotic-free medium. Then, mitomycin was added thereto at a concentration of 30 μg/mL and the cells were cultured for 2 hours. Then, the cells were washed with 1×PBS buffer, and a cell monolayer on the bottom surface of each well was scratched by using a 200 μL pipette tip to harm the cells. Since some cells were washed away by the scratching, the plate was washed repeatedly with 1×PBS buffer and then, filled with DMEM medium containing FBS and AA, and photographed at the time of 0 hour.\nThe 15-PGDH inhibitor was then injected at a concentration of 5 μM or the indicated concentration. For comparison with the results, in the case of the negative control, nothing was added, and in the case of the positive control, TGF-β1 was injected at a concentration of 1 ng/mL and then, the cells were cultured for 48 hours. After 48 hours, the picture of the cells was taken again to confirm how much the cells were grown due to the drug effect."}, "[1]": {"details": "5 μM, versus control (FIGS. 1 to 3)"}, "[2]": {"details": "0.5 μM to 5 μM, versus control (FIGS. 4 to 6)"}}, "data": [{"smiles": "O=C1NC(=O)/C(=C/c2ccc(OC(=O)C3CC3)c(Cl)c2)S1", "note": "[Compound 1, (Z)-2-chloro-4-((2,4-dioxothiazolidin-5-ylidene)methyl)phenyl cyclopropanecarboxylate]", "values": [{"measurement": "IC50", "setting": "15-PGDH", "result": 2090, "unit": "nM"}, {"measurement": "Increment %", "setting": "A549 cells", "result": 3.47, "unit": "%"}, {"measurement": "PGE2 concentration", "setting": "A549 cells", "result": 283.2688, "unit": "pg/mL"}, {"measurement": "wound closure rate", "setting": "HaCaT cells; [1]", "result": "significantly higher wound closure rates than the control"}]}, {"smiles": "O=C(CCCc1ccccc1)Oc1ccc(/C=C2\\SC(=O)NC2=O)cc1Cl", "note": "[Compound 14, (Z)-2-chloro-4-((2,4-dioxothiazolidin-5-ylidene)methyl)phenyl 4-phenylbutanoate]", "values": [{"measurement": "IC50", "setting": "15-PGDH", "result": 22, "unit": "nM"}, {"measurement": "Increment %", "setting": "A549 cells", "result": 389.99, "unit": "%"}, {"measurement": "PGE2 concentration", "setting": "A549 cells", "result": 586.3975, "unit": "pg/mL"}, {"measurement": "wound closure rate", "setting": "HaCaT cells; [1]", "result": "significantly higher wound closure rates than the control"}]}, {"smiles": "CCOc1cc(/C=C2\\SC(=O)NC2=O)ccc1OC(=O)CCCc1ccccc1", "note": "[Compound 59, (Z)-4-((2,4-dioxothiazolidin-5-ylidene)methyl)-2-ethoxyphenyl 4-phenylbutanoate]", "values": [{"measurement": "IC50", "setting": "15-PGDH", "result": 43.9, "unit": "nM"}, {"measurement": "Increment %", "setting": "A549 cells", "result": 579.34, "unit": "%"}, {"measurement": "PGE2 concentration", "setting": "A549 cells", "result": 1081.055, "unit": "pg/mL"}, {"measurement": "wound closure rate", "setting": "HaCaT cells; [2]", "result": "significantly high wound closure rate"}, {"measurement": "wound closure rate", "setting": "HaCaT cells; [1]", "result": "significantly higher wound closure rates than the control"}]}, {"smiles": "O=C(Cc1ccccc1)Oc1cccc(/C=C2\\SC(=O)NC2=O)c1Cl", "note": "[Compound 87, (Z)-2-chloro-3-((2,4-dioxothiazolidin-5-ylidene)methyl)phenyl 2-phenylacetate]", "values": [{"measurement": "IC50", "setting": "15-PGDH", "result": 105, "unit": "nM"}, {"measurement": "Increment %", "setting": "A549 cells", "result": 89.77, "unit": "%"}, {"measurement": "PGE2 concentration", "setting": "A549 cells", "result": 399.2994, "unit": "pg/mL"}]}, {"smiles": "O=C(CCc1ccccc1)Oc1cccc(/C=C2\\SC(=O)NC2=O)c1Cl", "note": "[Compound 88, (Z)-2-chloro-3-((2,4-dioxothiazolidin-5-ylidene)methyl)phenyl 3-phenylpropanoate]", "values": [{"measurement": "IC50", "setting": "15-PGDH", "result": 22.5, "unit": "nM"}, {"measurement": "Increment %", "setting": "A549 cells", "result": 113.47, "unit": "%"}, {"measurement": "PGE2 concentration", "setting": "A549 cells", "result": 449.1671, "unit": "pg/mL"}]}, {"smiles": "O=C(CCCc1ccccc1)Oc1cccc(/C=C2\\SC(=O)NC2=O)c1Cl", "note": "[Compound 89, (Z)-2-chloro-3-((2,4-dioxothiazolidin-5-ylidene)methyl)phenyl 4-phenylbutanoate]", "values": [{"measurement": "IC50", "setting": "15-PGDH", "result": 25.1, "unit": "nM"}, {"measurement": "Increment %", "setting": "A549 cells", "result": 398.2, "unit": "%"}, {"measurement": "PGE2 concentration", "setting": "A549 cells", "result": 1048.274, "unit": "pg/mL"}, {"measurement": "wound closure rate", "setting": "HaCaT cells; [2]", "result": "significantly high wound closure rate"}, {"measurement": "wound closure rate", "setting": "HaCaT cells; [1]", "result": "significantly higher wound closure rates than the control"}]}, {"smiles": "O=C(CCCCc1ccccc1)Oc1cccc(/C=C2\\SC(=O)NC2=O)c1Cl", "note": "[Compound 90, (Z)-2-chloro-3-((2,4-dioxothiazolidin-5-ylidene)methyl)phenyl 5-phenylpentanoate]", "values": [{"measurement": "IC50", "setting": "15-PGDH", "result": 46, "unit": "nM"}, {"measurement": "Increment %", "setting": "A549 cells", "result": 98.11, "unit": "%"}, {"measurement": "PGE2 concentration", "setting": "A549 cells", "result": 416.8478, "unit": "pg/mL"}]}, {"smiles": "O=C1NC(=O)/C(=C/c2ccc(OC(=O)C3CC3)cc2Cl)S1", "note": "[Compound 91, (Z)-3-chloro-4-((2,4-dioxothiazolidin-5-ylidene)methyl)phenyl cyclopropanecarboxylate]", "values": [{"measurement": "IC50", "setting": "15-PGDH", "result": 1080, "unit": "nM"}, {"measurement": "Increment %", "setting": "A549 cells", "result": "−4.5498", "unit": "%"}, {"measurement": "PGE2 concentration", "setting": "A549 cells", "result": 106.5773, "unit": "pg/mL"}]}, {"smiles": "O=C1NC(=O)/C(=C/c2ccc(OC(=O)C3CCC3)cc2Cl)S1", "note": "[Compound 92, (Z)-3-chloro-4-((2,4-dioxothiazolidin-5-ylidene)methyl)phenyl cyclobutanecarboxylate]", "values": [{"measurement": "IC50", "setting": "15-PGDH", "result": 206, "unit": "nM"}, {"measurement": "Increment %", "setting": "A549 cells", "result": "−57.6754", "unit": "%"}, {"measurement": "PGE2 concentration", "setting": "A549 cells", "result": 47.26, "unit": "pg/mL"}]}, {"smiles": "O=C1NC(=O)/C(=C/c2ccc(OC(=O)C3CCCC3)cc2Cl)S1", "note": "[Compound 93, (Z)-3-chloro-4-((2,4-dioxothiazolidin-5-ylidene)methyl)phenyl cyclopentanecarboxylate]", "values": [{"measurement": "IC50", "setting": "15-PGDH", "result": 71, "unit": "nM"}, {"measurement": "Increment %", "setting": "A549 cells", "result": 2.9785, "unit": "%"}, {"measurement": "PGE2 concentration", "setting": "A549 cells", "result": 114.9832, "unit": "pg/mL"}]}, {"smiles": "O=C(CC1CCCC1)Oc1ccc(/C=C2\\SC(=O)NC2=O)c(Cl)c1", "note": "[Compound 94, (Z)-3-chloro-4-((2,4-dioxothiazolidin-5-ylidene)methyl)phenyl 2-cyclopentylacetate]", "values": [{"measurement": "IC50", "setting": "15-PGDH", "result": 32.7, "unit": "nM"}, {"measurement": "Increment %", "setting": "A549 cells", "result": 97.1474, "unit": "%"}, {"measurement": "PGE2 concentration", "setting": "A549 cells", "result": 220.1299, "unit": "pg/mL"}]}, {"smiles": "O=C1NC(=O)/C(=C/c2ccc(OC(=O)C3CCCCC3)cc2Cl)S1", "note": "[Compound 96, (Z)-3-chloro-4-((2,4-dioxothiazolidin-5-ylidene)methyl)phenyl cyclohexanecarboxylate]", "values": [{"measurement": "IC50", "setting": "15-PGDH", "result": 26.8, "unit": "nM"}, {"measurement": "Increment %", "setting": "A549 cells", "result": 8.8874, "unit": "%"}, {"measurement": "PGE2 concentration", "setting": "A549 cells", "result": 121.5809, "unit": "pg/mL"}]}, {"smiles": "O=C(CC1CCCCC1)Oc1ccc(/C=C2\\SC(=O)NC2=O)c(Cl)c1", "note": "[Compound 97, (Z)-3-chloro-4-((2,4-dioxothiazolidin-5-ylidene)methyl)phenyl 2-cyclohexylacetate]", "values": [{"measurement": "IC50", "setting": "15-PGDH", "result": 27.7, "unit": "nM"}, {"measurement": "Increment %", "setting": "A549 cells", "result": 8.1011, "unit": "%"}, {"measurement": "PGE2 concentration", "setting": "A549 cells", "result": 120.703, "unit": "pg/mL"}]}, {"smiles": "O=C(CCCCC1CCCCC1)Oc1ccc(/C=C2\\SC(=O)NC2=O)c(Cl)c1", "note": "[Compound 100, (Z)-3-chloro-4-((2,4-dioxothiazolidin-5-ylidene)methyl)phenyl 5-cyclohexylpentanoate]", "values": [{"measurement": "IC50", "setting": "15-PGDH", "result": 39.4, "unit": "nM"}, {"measurement": "Increment %", "setting": "A549 cells", "result": "−3.7411", "unit": "%"}, {"measurement": "PGE2 concentration", "setting": "A549 cells", "result": 107.4803, "unit": "pg/mL"}]}, {"smiles": "O=C(O)c1ccccc1.O=C1NC(=O)/C(=C/c2ccc(OC(=O)c3ccccc3)cc2Cl)S1", "note": "[Compound 101, (Z)-3-chloro-4-((2,4-dioxothiazolidin-5-ylidene)methyl)phenyl benzoate]", "values": [{"measurement": "IC50", "setting": "15-PGDH", "result": 45.1, "unit": "nM"}, {"measurement": "Increment %", "setting": "A549 cells", "result": 79.4871, "unit": "%"}, {"measurement": "PGE2 concentration", "setting": "A549 cells", "result": 200.4108, "unit": "pg/mL"}]}, {"smiles": "O=C(Cc1ccccc1)Oc1ccc(/C=C2\\SC(=O)NC2=O)c(Cl)c1", "note": "[Compound 102, (Z)-3-chloro-4-((2,4-dioxothiazolidin-5-ylidene)methyl)phenyl 2-phenylacetate]", "values": [{"measurement": "IC50", "setting": "15-PGDH", "result": 75.3, "unit": "nM"}, {"measurement": "Increment %", "setting": "A549 cells", "result": 99.2022, "unit": "%"}, {"measurement": "PGE2 concentration", "setting": "A549 cells", "result": 222.4242, "unit": "pg/mL"}]}, {"smiles": "O=C(CCc1ccccc1)Oc1ccc(/C=C2\\SC(=O)NC2=O)c(Cl)c1", "note": "[Compound 103, (Z)-3-chloro-4-((2,4-dioxothiazolidin-5-ylidene)methyl)phenyl 3-phenylpropanoate]", "values": [{"measurement": "IC50", "setting": "15-PGDH", "result": 87.5, "unit": "nM"}, {"measurement": "Increment %", "setting": "A549 cells", "result": 159.989, "unit": "%"}, {"measurement": "PGE2 concentration", "setting": "A549 cells", "result": 290.2972, "unit": "pg/mL"}]}, {"smiles": "O=C(CCCc1ccccc1)Oc1ccc(/C=C2\\SC(=O)NC2=O)c(Cl)c1", "note": "[Compound 104, (Z)-3-chloro-4-((2,4-dioxothiazolidin-5-ylidene)methyl)phenyl 4-phenylbutanoate]", "values": [{"measurement": "IC50", "setting": "15-PGDH", "result": 74.9, "unit": "nM"}, {"measurement": "Increment %", "setting": "A549 cells", "result": 213.4577, "unit": "%"}, {"measurement": "PGE2 concentration", "setting": "A549 cells", "result": 349.9990, "unit": "pg/mL"}]}, {"smiles": "O=C(CCCCc1ccccc1)Oc1ccc(/C=C2\\SC(=O)NC2=O)c(Cl)c1", "note": "[Compound 105, (Z)-3-chloro-4-((2,4-dioxothiazolidin-5-ylidene)methyl)phenyl 5-phenylpentanoate]", "values": [{"measurement": "IC50", "setting": "15-PGDH", "result": 130, "unit": "nM"}, {"measurement": "Increment %", "setting": "A549 cells", "result": 89.4598, "unit": "%"}, {"measurement": "PGE2 concentration", "setting": "A549 cells", "result": 211.5461, "unit": "pg/mL"}]}]}
